Results from patent publication US20110130380A1, “Heteroaryl Kinase Inhibitors” (priority 2009, published 2011).

These compounds were tested against Cdk9/cyclinT1 (Homo sapiens, UniProt P50750) (assay: Cdk9/cyclinT1 IMAP Protocol (fluorescence polarization kinase assay)). Conditions: Cdk9_cyclinT1_IC50, Table V; generated using one of the two Cdk9/cyclinT1 assays (IMAP or Alpha Screen), not stated which; ATP 6 uM.
Chain of Cdk9/cyclinT1 (P50750 whole entry): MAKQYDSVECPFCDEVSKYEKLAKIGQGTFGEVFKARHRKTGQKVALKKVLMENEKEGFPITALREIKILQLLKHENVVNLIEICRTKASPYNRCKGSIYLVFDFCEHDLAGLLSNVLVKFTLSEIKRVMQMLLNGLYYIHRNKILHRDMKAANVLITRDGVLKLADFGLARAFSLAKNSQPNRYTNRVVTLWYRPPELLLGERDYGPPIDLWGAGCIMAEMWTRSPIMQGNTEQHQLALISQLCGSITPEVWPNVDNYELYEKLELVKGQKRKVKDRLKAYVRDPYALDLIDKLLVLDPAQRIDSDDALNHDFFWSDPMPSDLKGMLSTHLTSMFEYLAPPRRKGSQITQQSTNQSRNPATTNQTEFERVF
Chain of Cdk9/cyclinT1 (O60563 whole entry partner): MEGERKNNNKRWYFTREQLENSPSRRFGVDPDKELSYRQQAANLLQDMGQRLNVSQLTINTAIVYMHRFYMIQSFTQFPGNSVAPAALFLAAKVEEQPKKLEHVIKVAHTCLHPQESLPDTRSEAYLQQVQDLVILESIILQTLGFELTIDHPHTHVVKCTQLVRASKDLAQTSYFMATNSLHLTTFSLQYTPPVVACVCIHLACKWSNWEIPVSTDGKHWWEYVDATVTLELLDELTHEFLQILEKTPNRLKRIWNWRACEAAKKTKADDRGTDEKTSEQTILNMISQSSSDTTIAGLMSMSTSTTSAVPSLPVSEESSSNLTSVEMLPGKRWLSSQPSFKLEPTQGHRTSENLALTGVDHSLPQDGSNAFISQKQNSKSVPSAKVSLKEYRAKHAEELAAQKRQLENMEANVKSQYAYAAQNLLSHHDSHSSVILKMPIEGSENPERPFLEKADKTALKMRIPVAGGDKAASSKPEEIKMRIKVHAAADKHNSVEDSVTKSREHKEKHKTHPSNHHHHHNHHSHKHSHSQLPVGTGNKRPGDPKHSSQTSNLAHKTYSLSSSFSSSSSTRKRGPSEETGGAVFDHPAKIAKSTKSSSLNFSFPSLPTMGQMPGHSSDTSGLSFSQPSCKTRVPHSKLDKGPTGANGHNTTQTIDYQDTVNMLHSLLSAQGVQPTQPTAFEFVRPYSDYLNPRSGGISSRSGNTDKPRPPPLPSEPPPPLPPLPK

IC50 [nM] | SMILES
21 | O=C(Nc1cc(-c2cccc(NC[C@@H]3CCCO3)n2)c(Cl)cn1)[C@@H]1CCCNC1 [Example 27, (R)-Piperidine-3-carboxylic acid (5′-chloro-6-{[(S)-1-(tetrahydro-furan-2-yl)methyl]-amino}-[2,4′]bipyridinyl-2′-yl)-amide]
< 8 | O=C(Nc1cc(-c2cccc(NC[C@H]3CCCOC3)n2)c(Cl)cn1)[C@@H]1CCCNC1 (single isomer, unassigned) [Example 78]
5 | O=C(Nc1cc(-c2cccc(NCC3CCOCC3)n2)c(Cl)cn1)[C@H]1CNC[C@@H](F)C1 [Example 177, (3R,5S)-5-Fluoro-piperidine-3-carboxylic acid {5′-chloro-6-[(tetrahydro-pyran-4-ylmethyl)-amino]-[2,4′]bipyridinyl-2′-yl}-amide]
< 8 | CC(=O)N1CCC[C@H](C(=O)Nc2cc(-c3cccc(NCC4CCOCC4)n3)c(Cl)cn2)C1 [Example 89, (S)-1-Acetyl-piperidine-3-carboxylic acid {5′-chloro-6-[(tetrahydro-pyran-4-ylmethyl)-amino]-[2,4′]bipyridinyl-2′-yl}-amide]
< 8 | O=C(Nc1cc(-c2cccc(NCC3CCOCC3)n2)ccn1)[C@@H]1CCCNC1 [Example 15, (R)-Piperidine-3-carboxylic acid {6-[(tetrahydro-pyran-4-ylmethyl)-amino]-[2,4′]bipyridinyl-2′-yl}-amide]
< 8 | O=C(Nc1cc(-c2cccc(NCc3cccc(OC(F)F)c3)n2)c(Cl)cn1)[C@@H]1CCCNC1 [Example 55, (R)-Piperidine-3-carboxylic acid [5′-chloro-6-(3-difluoromethoxy-benzylamino)-[2,4′]bipyridinyl-2′-yl]-amide]
9 | CN1CC(C(=O)Nc2cc(-c3cccc(NCC4CCOCC4)n3)c(Cl)cn2)CC1=O (stereo not shown) [Example 60, 1-Methyl-5-oxo-pyrrolidine-3-carboxylic acid {5′-chloro-6-[(tetrahydro-pyran-4-ylmethyl)-amino]-[2,4′]bipyridinyl-2′-yl}-amide]
< 8 | O=C(Nc1cc(-c2nc(NCC3CCOCC3)c(Cl)cc2Cl)c(Cl)cn1)[C@@H]1CCCNC1 [Example 134, (R)-Piperidine-3-carboxylic acid {3,5,5′-trichloro-6-[(tetrahydro-pyran-4-ylmethyl)-amino]-[2,4′]bipyridinyl-2′-yl}-amide]
11 | CC(C)C(=O)Nc1cc(-c2cccc(NCC3CCOCC3)n2)c(Cl)cn1 [Example 70, N-{5′-Chloro-6-[(tetrahydro-pyran-4-ylmethyl)-amino]-[2,4]bipyridinyl-2′-yl}-isobutyramide]
< 8 | O=C(Nc1cc(-c2cccc(NCC3CCOCC3)n2)c(Cl)cn1)[C@H]1CCCN(S(=O)(=O)C2CC2)C1 [Example 93, (S)-1-Cyclopropanesulfonyl-piperidine-3-carboxylic acid {5′-chloro-6-[(tetrahydro-pyran-4-ylmethyl)-amino]-[2,4′]bipyridinyl-2′-yl}-amide]
18 | C[C@H]1CC[C@@H](C(=O)Nc2cc(-c3cccc(NCC4CCOCC4)n3)c(Cl)cn2)CN1 (racemic) [Example 126, (3R,6S)-/(3S,6R)-6-Methyl-piperidine-3-carboxylic acid {5′-chloro-6-[(tetrahydro-pyran-4-ylmethyl)-amino]-[2,4′]bipyridinyl-2′-yl}-amide]
< 8 | C[C@H]1CC[C@@H](C(=O)Nc2cc(-c3cccc(NCC4CCOCC4)n3)c(Cl)cn2)CN1 (single isomer, unassigned) [Example 141]
21 | COCCCNc1cccc(-c2cc(NC(=O)[C@@H]3CCCNC3)ncc2Cl)n1 [Example 28, (R)-Piperidine-3-carboxylic acid [5′-chloro-6-(3-methoxy-propylamino)-[2,4′]bipyridinyl-2′-yl]-amide]
< 8 | N[C@@H]1CC[C@@H](C(=O)Nc2cc(-c3cccc(NCC4CCOCC4)n3)c(Cl)cn2)C1 [Example 49, (1R,3R)-3-Amino-cyclopentanecarboxylic acid {5′-chloro-6-[(tetrahydro-pyran-4-ylmethyl)-amino]-[2,4′]bipyridinyl-2′-yl}-amide]
3 | O=C(Nc1cc(-c2cccc(NCC3CCOCC3)n2)c(Cl)cn1)C1CNCCOC1 (stereo not shown) [Example 187, [1,4]Oxazepane-6-carboxylic acid {5′-chloro-6-[(tetrahydro-pyran-4-ylmethyl)-amino]-[2,4′]bipyridinyl-2′-yl}-amide]
< 8 | CC1(C)C[C@H](CNc2cccc(-c3cc(NC(=O)[C@H]4CNCCO4)ncc3Cl)n2)CCO1 (single isomer, unassigned) [Example 130]

IC50 [nM] | SMILES
< 8 | O=C(Nc1cc(-c2cccc(NCc3ccccc3)n2)c(Cl)cn1)[C@@H]1CCCNC1 [Example 39, (R)-Piperidine-3-carboxylic acid (6-benzylamino-5′-chloro-[2,4′]bipyridinyl-2′-yl)-amide]
1 | CC[C@@H]1CC[C@@H](C(=O)Nc2cc(-c3cccc(NCC4CCOCC4)n3)c(Cl)cn2)CN1 (single isomer, unassigned) [Example 240]
181 | O=C(Nc1cc(-c2cccc(N3CCCC3)n2)c(Cl)cn1)[C@@H]1CCCNC1 [Example 44, (R)-Piperidine-3-carboxylic acid (5′-chloro-6-pyrrolidin-1-yl-[2,4′]bipyridinyl-2′-yl)-amide]
2 | COC(=O)N1CCC[C@H](C(=O)Nc2cc(-c3nc(NC[C@H]4CCOC(C)(C)C4)ccc3Cl)c(Cl)cn2)C1 (single isomer, unassigned) [Example 175]
6 | COC[C@H]1C[C@@H](C(=O)Nc2cc(-c3cccc(NCC4(C)CCOCC4)n3)c(Cl)cn2)CN1 [Example 246, (3R,5R)-5-Methoxymethyl-pyrrolidine-3-carboxylic acid {5′-chloro-6-[(4-methyl-tetrahydro-pyran-4-ylmethyl)-amino]-[2,4′]bipyridinyl-2′-yl}-amide]
4 | C[C@H]1CC[C@H](C(=O)Nc2cc(-c3ccc(F)c(NCC4CCOCC4)n3)c(Cl)cn2)CN1C (single isomer, unassigned) [Example 197]
134 | O=C(Nc1cc(-c2cccc(NCC3CCOCC3)n2)c(Cl)cn1)[C@H]1CNC[C@H]1O [Example 121, (3S,4S)-4-hydroxy-pyrrolidine-3-carboxylic acid {5′-chloro-6-[(tetrahydro-pyran-4-ylmethyl)-amino]-[2,4′]bipyridinyl-2′-yl}-amide]
2 | CC1(C)CC(CNc2cccc(-c3cc(NC(=O)C4CNCCOC4)ncc3Cl)n2)CCO1 (stereo not shown) [Example 202, [1,4]Oxazepane-6-carboxylic acid {5′-chloro-6-[(2,2-dimethyl-tetrahydro-pyran-4-ylmethyl)-amino]-[2,4′]bipyridinyl-2′-yl}-amide]
1 | CCC1(CNc2nc(-c3cc(NC(=O)[C@@H]4CCCNC4)ncc3Cl)ccc2F)CCOCC1 [Example 209, (R)-Piperidine-3-carboxylic acid {5′-chloro-6-[(4-ethyl-tetrahydro-pyran-4-ylmethyl)-amino]-5-fluoro-[2,4′]bipyridinyl-2′-yl}-amide]
38 | CC1(C)C[C@@H](CNc2cccc(-c3cc(NC(=O)[C@H]4CNCCO4)ncc3Cl)n2)CCO1 (single isomer, unassigned) [Example 131]
< 8 | CC(C)S(=O)(=O)N[C@@H]1CC[C@H](C(=O)Nc2cc(-c3nc(NCC4CCOCC4)ccc3Cl)c(Cl)cn2)C1 [Example 114, (1S,3R)-3-(Propane-2-sulfonylamino)-cyclopentanecarboxylic acid {3,5′-dichloro-6-[(tetrahydro-pyran-4-ylmethyl)-amino]-[2,4′]bipyridinyl-2′-yl}-amide]
< 8 | COC(=O)N1CCC[C@H](C(=O)Nc2cc(-c3nc(NCC4CCOCC4)ccc3Cl)c(Cl)cn2)C1 [Example 105, (S)-3-{3,5′-Dichloro-6-[(tetrahydro-pyran-4-ylmethyl)-amino]-[2,4′]bipyridinyl-2′-ylcarbamoyl}-piperidine-1-carboxylic acid methyl ester]
< 8 | CO[C@H]1CNC[C@@H]1C(=O)Nc1cc(-c2nc(NCC3CCOCC3)ccc2Cl)c(Cl)cn1 [Example 150, (3S,4R)-4-Methoxy-pyrrolidine-3-carboxylic acid {3,5′-dichloro-6-[(tetrahydro-pyran-4-ylmethyl)-amino]-[2,4′]bipyridinyl-2′-yl}-amide]
< 8 | CS(=O)(=O)N1CCC[C@H](C(=O)Nc2cc(-c3cccc(NCC4CCOCC4)n3)c(Cl)cn2)C1 [Example 91, (S)-1-Methanesulfonyl-piperidine-3-carboxylic acid {5′-chloro-6-[(tetrahydro-pyran-4-ylmethyl)-amino]-[2,4′]bipyridinyl-2′-yl}-amide]
31 | O=C(Nc1cc(-c2cccc(NCC3CCOCC3)n2)c(Cl)cn1)[C@H]1CNC[C@H](C(F)(F)F)C1 (racemic) [Example 149, (3R,5R)-/(3S,5S)-5-Trifluoromethyl-piperidine-3-carboxylic acid {5′-chloro-6-[(tetrahydro-pyran-4-ylmethyl)-amino]-[2,4′]bipyridinyl-2′-yl}-amide]

Same assay, conditions: Cdk9_cyclinT1_IC50, generated using one of the two Cdk9/cyclinT1 assays (IMAP or Alpha Screen), not specified per value; ATP 6 uM

IC50 [nM] | SMILES
25 | CC(C)(C)OC(=O)N1CCC[C@@H](C(=O)Nc2cc(-c3cnc(Cl)c(NCC4CCOCC4)c3)c(Cl)cn2)C1 [Example 303, (R)-3-{6,5′-Dichloro-5-[(tetrahydro-pyran-4-ylmethyl)-amino]-[3,4′]bipyridinyl-2′-ylcarbamoyl}-piperidine-1-carboxylic acid tert-butyl ester]
531 | O=C(Nc1cc(-c2cncc(F)c2)c(Cl)cn1)[C@@H]1CCCNC1 [Example 308, (R)-Piperidine-3-carboxylic acid (5′-chloro-5-fluoro-[3,4′]bipyridinyl-2′-yl)-amide]
< 8 | O=C(Nc1cc(-c2cnc(Cl)c(NCC3CCOCC3)c2)c(Cl)cn1)[C@@H]1CCCNC1 [Example 302, (R)-Piperidine-3-carboxylic acid {6,5′-dichloro-5-[(tetrahydro-pyran-4-ylmethyl)-amino]-[3,4′]bipyridinyl-2′-yl}-amide]
